Measured values as given in the supplement of paper PMC11451515.

Tested on: P12-Ichikawa
Test: cell viability relative to DMSO control; higher = less cytotoxic
Conditions: 48 h
Method in brief: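 Before seeding, each leukemia line was adapted for at least four passages in each medium. NOMO1 or SEM cells (500 cells/well) and P12-Ichikawa cells (1000 cells/well) went into 1536-well plates at 5 μl, then received library compounds in DMSO by pin dosing across 11 threefold concentrations, 47 μM to 0.79 nM. Readout was CellTiter-Glo One luminescence after 48 h at 37°C, and viability is given as a per-plate percentage of DMSO wells, with cell-free wells as background.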

[1] = HPLM + 10% dialyzed FBS, 0.000781 µM
[2] = HPLM + 10% dialyzed FBS, 0.00234 µM
[3] = HPLM + 10% dialyzed FBS, 0.00702 µM
[4] = HPLM + 10% dialyzed FBS, 0.0211 µM
[5] = HPLM + 10% dialyzed FBS, 0.0632 µM
[6] = HPLM + 10% dialyzed FBS, 0.19 µM
[7] = HPLM + 10% dialyzed FBS, 0.569 µM
[8] = HPLM + 10% dialyzed FBS, 1.71 µM
[9] = HPLM + 10% dialyzed FBS, 5.12 µM
[10] = HPLM + 10% dialyzed FBS, 15.4 µM
[11] = HPLM + 10% dialyzed FBS, 46.1 µM
[12] = RPMI 5 mM glucose + 10% FBS, 0.000781 µM
[13] = RPMI 5 mM glucose + 10% FBS, 0.00234 µM
[14] = RPMI 5 mM glucose + 10% FBS, 0.00702 µM
[15] = RPMI 5 mM glucose + 10% FBS, 0.0211 µM
[16] = RPMI 5 mM glucose + 10% FBS, 0.0632 µM
[17] = RPMI 5 mM glucose + 10% FBS, 0.19 µM
[18] = RPMI 5 mM glucose + 10% FBS, 0.569 µM
[19] = RPMI 5 mM glucose + 10% FBS, 1.71 µM
[20] = RPMI 5 mM glucose + 10% FBS, 5.12 µM
[21] = RPMI 5 mM glucose + 10% FBS, 15.4 µM
[22] = RPMI 5 mM glucose + 10% FBS, 46.1 µM
[23] = RPMI 5 mM glucose + 10% dialyzed FBS, 0.000781 µM
[24] = RPMI 5 mM glucose + 10% dialyzed FBS, 0.00234 µM
[25] = RPMI 5 mM glucose + 10% dialyzed FBS, 0.00702 µM
[26] = RPMI 5 mM glucose + 10% dialyzed FBS, 0.0211 µM
[27] = RPMI 5 mM glucose + 10% dialyzed FBS, 0.0632 µM
[28] = RPMI 5 mM glucose + 10% dialyzed FBS, 0.19 µM
[29] = RPMI 5 mM glucose + 10% dialyzed FBS, 0.569 µM
[30] = RPMI 5 mM glucose + 10% dialyzed FBS, 1.71 µM
[31] = RPMI 5 mM glucose + 10% dialyzed FBS, 5.12 µM
[32] = RPMI 5 mM glucose + 10% dialyzed FBS, 15.4 µM
[33] = RPMI 5 mM glucose + 10% dialyzed FBS, 46.1 µM

SMILES | cell viability [1] [%] | cell viability [2] [%] | cell viability [3] [%] | cell viability [4] [%] | cell viability [5] [%] | cell viability [6] [%] | cell viability [7] [%] | cell viability [8] [%] | cell viability [9] [%] | cell viability [10] [%] | cell viability [11] [%] | cell viability [12] [%] | cell viability [13] [%] | cell viability [14] [%] | cell viability [15] [%] | cell viability [16] [%] | cell viability [17] [%] | cell viability [18] [%] | cell viability [19] [%] | cell viability [20] [%] | cell viability [21] [%] | cell viability [22] [%] | cell viability [23] [%] | cell viability [24] [%] | cell viability [25] [%] | cell viability [26] [%] | cell viability [27] [%] | cell viability [28] [%] | cell viability [29] [%] | cell viability [30] [%] | cell viability [31] [%] | cell viability [32] [%] | cell viability [33] [%]
O=C(Nc1ccccc1-c1cn2c(CN3CCNCC3)csc2n1)c1cnc2ccccc2n1 | 84.5 | 89.8 | 89.3 | 84.4 | 90.1 | 88.3 | 85.3 | 84.5 | 83.9 | 75.3 | 0.861 | 80.4 | 85.3 | 83.6 | 85.2 | 86.5 | 86.1 | 79.8 | 76.2 | 82.9 | 67.9 | 1.29 | 83 | 84 | 80.3 | 80.5 | 78.1 | 87.4 | 78.4 | 78.7 | 77.8 | 69 | 1.1
CC(C)C(=O)Oc1ccc(CO)cc1[C@H](CCN(C(C)C)C(C)C)c1ccccc1 | 92 | 87.1 | 89.2 | 85.3 | 90.1 | 99 | 75.7 | 69.3 | 86.2 | 76.8 | 81.8 | 81.1 | 82.5 | 85.6 | 83.4 | 83.2 | 83.9 | 86.1 | 84.9 | 81.5 | 80.7 | 83.4 | 78.9 | 76.3 | 82.9 | 80.1 | 87 | 84.2 | 79.7 | 78.8 | 77.1 | 73.1 | 78.1
Nc1nc(N)c2nc(CNc3ccc(C(=O)NC(CCC(=O)O)C(=O)O)cc3)cnc2n1 (centres undefined) | 103 | 111 | 110 | 114 | 59.2 | 47.7 | 31 | 31.8 | 44 | 39.6 | 29.7 | 103 | 103 | 103 | 123 | 71.2 | 37.9 | 46.6 | 47 | 38.5 | 51.2 | 61 | 105 | 95.5 | 105 | 112 | 86 | 28.1 | 25.8 | 24 | 25.9 | 26.2 | 26.2
C=CC(=O)N1CCC[C@@H](n2nc(-c3ccc(Oc4ccccc4)cc3)c3c(N)ncnc32)C1 | 127 | 123 | 120 | 121 | 114 | 112 | 111 | 91.8 | 80.7 | 76.3 | 80.5 | – | – | – | – | – | – | – | – | – | – | – | – | – | – | – | – | – | – | – | – | – | –
CC[C@H](C)[N]1C=C(C)C2=C1C=C(C=C2C(=O)NC\C3=C(C)\C=C(\C)NC3=O)C4=CC=C(N=C4)N5CCNCC5 | 109 | 116 | 114 | 115 | 115 | 122 | 116 | 117 | 114 | 118 | 109 | 104 | 116 | 117 | 118 | 117 | 113 | 126 | 129 | 117 | 125 | 106 | 103 | 107 | 108 | 113 | 115 | 114 | 116 | 132 | 115 | 108 | 93.1
O=C(Nc1ccc(F)c(C(F)(F)F)c1)Nc1nnc(-c2ccncc2)s1 | 125 | 121 | 119 | 115 | 129 | 112 | 120 | 115 | 119 | 111 | 100 | 113 | 127 | 125 | 109 | 112 | 114 | 114 | 118 | 113 | 111 | 99.5 | 115 | 121 | 129 | 113 | 123 | 120 | 127 | 115 | 114 | 106 | 113
NC(=O)c1ccc(I)c([N+](=O)[O-])c1 | 117 | 126 | 124 | 115 | 130 | 139 | 133 | 134 | 132 | 128 | 125 | – | – | – | – | – | – | – | – | – | – | – | – | – | – | – | – | – | – | – | – | – | –
CCN1\C=C(\C(O)=O)C(=O)C2=CC=C(C)N=C12 | 88.3 | 93.8 | 101 | 96.3 | 101 | 93.7 | 105 | 97.6 | 95.7 | 105 | 93.6 | 79.7 | 82.3 | 90 | 90.1 | 84.6 | 89.3 | 89.7 | 90.6 | 88.8 | 98.8 | 97 | 77.2 | 90.6 | 87.1 | 91 | 96 | 88.6 | 86.4 | 87.4 | 91.3 | 92.4 | 90.1
C/C=C(/C)C(=O)O[C@H]1C(C)=C[C@]23C(=O)[C@@H](C=C(CO)[C@@H](O)[C@]12O)[C@H]1[C@@H](C[C@H]3C)C1(C)C | 111 | 122 | 106 | 99.1 | 96.8 | 90.6 | 87 | 97.2 | 97.3 | 79.7 | 81.4 | 122 | 131 | 99.8 | 87.9 | 79.7 | 79.2 | 82.3 | 82.4 | 78.2 | 77.8 | 74.9 | 116 | 122 | 101 | 94.6 | 89.9 | 81.6 | 79 | 82.6 | 86.7 | 81.1 | 70.6
N[C@H](CSC(c1ccccc1)(c1ccccc1)c1ccccc1)C(=O)O | 107 | 112 | 121 | 129 | 108 | 114 | 117 | 120 | 115 | 114 | 108 | 97.6 | 112 | 115 | 124 | 116 | 122 | 120 | 119 | 125 | 124 | 131 | 90.9 | 116 | 122 | 116 | 118 | 112 | 115 | 121 | 127 | 121 | 116
CC(C)CC(=O)N[C@H](C(=O)N[C@H](C(=O)N[C@@H](CC(C)C)[C@@H](O)CC(=O)N[C@@H](C)C(=O)N[C@@H](CC(C)C)[C@@H](O)CC(=O)O)C(C)C)C(C)C | 103 | 103 | 107 | 108 | 105 | 114 | 118 | 116 | 105 | 111 | 97.9 | 108 | 109 | 121 | 109 | 97.6 | 113 | 105 | 113 | 122 | 103 | 108 | 98.1 | 99.7 | 106 | 102 | 96.6 | 103 | 107 | 111 | 102 | 97.6 | 96
CCOC(=O)\C1=C(/C)N\C2=C(C1C3=CC=C(C=C3)C4=CC=CC=C4)\C(=O)CC(C)(C)C2 (centres undefined) | 119 | 112 | 123 | 110 | 119 | 110 | 109 | 107 | 108 | 108 | 103 | 108 | 104 | 117 | 117 | 115 | 99.8 | 109 | 103 | 102 | 95.3 | 113 | 112 | 118 | 116 | 114 | 111 | 101 | 104 | 101 | 107 | 98.9 | 95.3
C[C@]12CCC(=O)C=C1CC[C@@H]1[C@@H]2CC[C@@]2(C)[C@H]1CC[C@]2(C)O | 105 | 110 | 105 | 91.5 | 104 | 107 | 109 | 104 | 102 | 89.6 | 86.4 | 94.7 | 93.3 | 105 | 79.6 | 104 | 102 | 104 | 94.9 | 97.9 | 92.1 | 79.8 | 94.6 | 101 | 100 | 80.5 | 94.8 | 100 | 91.7 | 106 | 97.5 | 87.7 | 88.1
COC1=C2OC(=O)\C=C/C2=CC3=C1OC=C3 | 118 | 113 | 115 | 116 | 112 | 107 | 108 | 102 | 99.7 | 61.3 | 84.6 | 118 | 117 | 117 | 111 | 109 | 110 | 113 | 110 | 109 | 55.6 | 86.8 | 115 | 117 | 119 | 125 | 108 | 109 | 105 | 100 | 101 | 60.2 | 74.4
O=C(O[C@H]1C[C@H]2CC[C@@H](C1)[N+]21CCCC1)C(O)(c1ccccc1)c1ccccc1.[Cl-] | 104 | 104 | 112 | 106 | 117 | 105 | 110 | 116 | 107 | 116 | 110 | 107 | 104 | 113 | 116 | 120 | 127 | 127 | 106 | 113 | 115 | 115 | 99.5 | 99.9 | 105 | 106 | 117 | 110 | 104 | 113 | 107 | 103 | 103
C=C(C)[C@H]1Cc2c(ccc3c2O[C@@H]2COc4cc(OC)c(OC)cc4[C@@H]2C3=O)O1 | 101 | 108 | 107 | 111 | 95.9 | 118 | 90.6 | 76.5 | 56.1 | 19.7 | 17.7 | 108 | 113 | 104 | 106 | 88.2 | 99.5 | 73.6 | 60.3 | 44.3 | 17.3 | 10.1 | 98.6 | 106 | 110 | 107 | 102 | 95.7 | 76.6 | 69.3 | 59.9 | 34 | 24.1
